Results from article PMC8708821, “Comprehensive Analysis and Biological Characterization of Venom Components from Solitary Scoliid Wasp Campsomeriella annulata annulata” (Toxins, 2021).
Where two headings read alike, the source gives them in different places. Marks after values point to notes of the source that are not given here. No end group written: not given here.

Key:
[1] = system: Vero cells; test: Toxicity on cell integrity, crystal violet, Vero cells; assay type: cell-based, Cercopithecus aethiops (African green monkey); conditions: for cytotoxicity in Vero cells: 0.1, 1 and 10 μmol·L−1, 1, 6, 24 and 48 h, vs untreated cells, n = 3 in triplicate
Procedure: (§1) The cytotoxic effects of α-campsomerin and β-campsomerin were determined by the staining of attached cells with crystal violet dye, according to the literature. In a 96-well plate (Nest Biotechnology, Rahway, USA), PC12 and Vero cells were put at 2.0 × 10^4 and 1.0 × 10^4 cells/well, respectively. Cells were treated with different concentrations (0.1 to 10 µmol·L^−1) of peptides in 0.10 mL. The plate was incubated for 1, 6, 24, and 48 h at 37 °C. There were control and DMSO groups for each concentration and time course tested, representing untreated cells (just one equal volume of culture medium) and cells treated with DMSO (5%; v/v) diluted in the medium culture, respectively. The media was then aspirated, and the cells were stained with a 0.5 percent crystal violet staining solution (0.5%; m/v), washed, and air-dried. Afterwards, methanol (200 μL) was added, and the absorbance measured at 570 nm using a SpectraMax reader (Molecular Devices, CA, USA). Data were obtained from three independent experiments in triplicate, and were expressed by percentage of cell viability, calculated using the control group as 100% of integrity.

[2] = system: PC12 cells; test: Toxicity on cell integrity, crystal violet, PC12 cells; assay type: cell-based, rat
Procedure: as §1

[3] = system: PC12 cells; test: Neuroprotective assay against H2O2-induced oxidative stress; assay type: cell-based, rat
Procedure: Initially, PC12 cells were seeded at 2 × 10^4 cells/well in a 96-well plate (Nest Biotechnology, Rahway, NJ, USA) for 24 h. To evaluate the neuroprotective effects of peptides, cells were pre-treated at 37 °C with α-campsomerin and β-campsomerin (0.1 to 20 µmol·L^−1), diluted in DMEM medium supplemented with antibiotics without fetal bovine serum for 4 h. […] Cells untreated with H2O2 represent control group in all experiments. Next, all groups were analyzed by the cell integrity.

[4] = molecular target: T1, AChE from Electrophorus electricus (electric eel) Type VI-S (Electrophorus electricus, UniProt O42275); test: AChE activity, Ellman's technique; assay type: biochemical; conditions: positive control; mean ± SD, three independent experiments in triplicate
T1 construct: purchased Sigma-Aldrich Type VI-S
Procedure: The AChE activity was evaluated spectrophotometrically using Ellman’s technique, as previously reported by Harry et al., with slight modifications. Both peptides (20 μL) at varied concentrations (20, 10, 5, 1, and 0.1 µmol·L^−1), 10 μL of AChE (0.5 U·mL^−1) (Sigma, St. Louis, MO, USA) and 160 μL of 5,5-dithiobis-2-nitrobenzoic acid (DTNB, Ellman’s reagent) 0.33 mM (Sigma, St. Louis, MO, USA) in phosphate buffer (0.1 mo·L^−1, pH 8.0) were placed in triplicate in a microplate, and incubated at room temperature for 10 min after adding 10 μL of acetylthiocholine iodide (20 mmol·L^−1) (Sigma, St. Louis, MO, USA). The hydrolysis of acetylthiocholine iodide leads to production of acetic acid and thiocholine, which reacts with DTNB producing the anion 5-thio-2-nitrobenzoic acid, which was monitored at 412 nm during 20 min in microplate reader (BioTek Instruments, Inc., Winooski, VT, USA. Tetraethyl pyrophosphate (TEPP; Sigma, St. Louis, MO, USA) was used as a positive control. IAChE = [(Ac − As)/Ac] × 100, where Ac = absorbance for the control and As = absorbance for the sample was used to compute the percentage of inhibition (I) of AChE.

[5] = system: neuronal cell lines; conditions: previous study; neuronal cell integrity and mitochondrial metabolism; ref [28]; cited from earlier work
Excerpt: The venom of solitary wasps is a rich source of neuroactive chemicals, including bradykinin-related peptides, which disrupt the synaptic transmission of the nAChR in the central nervous system of prey. Our group has studied the neuroprotective effects of natural peptides from solitary wasp venoms against the H2O2-induced oxidative stress in neuronal cell lines after different treatments for acute and chronic conditions.. This cell model, which promotes excessive ROS generation, with consequent neurotoxic effects, represents typical characte ...

[6] = system: Staphylococcus aureus (NBRC 12732); test: Antimicrobial activity (MIC), S. aureus; assay type: cell-based
Procedure: (§2) Antimicrobial, hemolytic, and histamine-releasing activities were measured as described previously. The microbial species used in this study were: Escherichia coli (NBRC 14237), Staphylococcus aureus (NBRC 12732), and Saccharomyces cerevisiae (NBRC 10217), which were purchased from the Biological Resource Center (BRC, Kisarazu, Japan), National Institute of Technology and Evaluation. The pI of peptides was calculated with IPC (http://isoelectric.org/index.html, accessed on 8 November 2021). The physicochemical properties were examined using HeliQuest (http://heliquest.ipmc.cnrs.fr/, accessed on 8 November 2021).

[7] = system: Saccharomyces cerevisiae (NBRC 10217); test: Antimicrobial activity (MIC), S. cerevisiae; assay type: cell-based
Procedure: as §2

[8] = Hemolytic activity; assay type: cell-based
Procedure: as §2

[9] = system: Escherichia coli (NBRC 14237); test: Antimicrobial activity (MIC), E. coli; assay type: cell-based
Procedure: as §2

[10] = system: mast cells; test: Histamine-releasing activity; assay type: cell-based
Procedure: as §2

[11] = ref Shigeri et al. [34]; cited from earlier work
Excerpt: Table 10 Antimicrobial, hemolytic, and histamine-releasing activities of annulatin and related peptides. | column: Hemolytic Activity (%) / at 10 μmol·L^−1

[12] = system: mast cells; conditions: ref Shigeri et al. [34]; cited from earlier work
Excerpt: Table 10 Antimicrobial, hemolytic, and histamine-releasing activities of annulatin and related peptides. | column: Histamine Releasing Activity at 10 μmol·L^−1 (%)

[13] = system: T2, ACE I; test: Stability test: cleavage of peptide by ACE; assay type: in vitro ADME; conditions: rabbit, isolated ACE I from rabbit lung; peptide 30 µmol·L−1 incubated four hours at 37 °C with ACE (7.5 n); RP-HPLC C-18, UV 214 nm
T2 construct: The ACE I from rabbit lung; purchased Sigma-Aldrich; host or cells: rabbit lung
Procedure: (§3) Both peptides (30 µmol·L^−1) were incubated for four hours at 37 °C with ACE and NEP (7.5 n). As a negative control, samples containing only synthetic peptides were employed. After incubation, samples were analyzed on a Shim-pack VP-ODS C-18 column (4.6 150 mm) utilizing reverse-phase chromatography on HPLC (Prominence, Shimadzu). Solvent A was 0.1% TFA in water (solvent A), and solvent B was acetonitrile plus solvent A (9:1). Over a 20-min period, separations were carried out at a flow rate of 1 mL/min with a 10–60 percent gradient of solvent B. Elution was always followed by an assessment of UV absorption (214 nm).

[14] = molecular target: human neprilysin (NEP) (Homo sapiens, UniProt P08473); test: NEP catalytic activity inhibition (FRET substrate); assay type: biochemical; conditions: peptide 20, 30 and 50 μmol·L−1; FRET substrate Abz-RGFK(Dnp)-OH 2, 4, 8 μmol·L−1; Tris HCl 50 mmol·L−1 pH 7.5; 37 °C; 15 min; triplicate
Procedure: (§4) Experiments were performed using different concentrations of α-campsomerin and β-campsomerin with ACE and NEP, and their FRET substrates, FRK(Dnp)P-OH and Abz-RGFK (Dnp)-OH, respectively. The assays used 7.5 ng of both peptidases and the substrates were added in a 100 mmol·L^−1 Tris-HCl buffer containing 50 mmol·L^−1 NaCl, 10 μmol·L^−1 ZnCl2, pH 7.0 (for ACE assays) and Tris HCl 50 mmol·L^−1, pH 7.5 buffer (for NEP assays). All experiments were carried out at 37 °C and at a final volume of 100 µL Three FRETs substrate concentrations were used (2 μmol·L^−1, 4 μmol·L^−1 and 8 μmol·L^−1), and were incubated with three concentrations of both peptides (20 μmol·L^−1, 30 μmol·L^−1 and 50 μmol·L^−1). Controls without the peptides were also performed in all assays. The reactions were monitored for 15 min on fluorimeter (Victor 3—Perkin–Elmer) and the results were analyzed on GraFit 3.0 from Erithacus Software. All assays were performed in triplicate.

[15] = system: neprilysin (NEP); test: Stability test: cleavage of peptide by NEP; assay type: in vitro ADME; conditions: human, isolated human neprilysin (NEP); peptide 30 µmol·L−1 incubated four hours at 37 °C with NEP (7.5 n); RP-HPLC C-18, UV 214 nm
Procedure: as §3

[16] = molecular target: T3, ACE I from rabbit lung (Oryctolagus cuniculus, UniProt P12822); test: ACE catalytic activity inhibition (FRET substrate); assay type: biochemical; conditions: peptide 20, 30 and 50 μmol·L−1; FRET substrate Abz-FRK(Dnp)P-OH 2, 4, 8 μmol·L−1; 100 mmol·L−1 Tris-HCl, 50 mmol·L−1 NaCl, 10 μmol·L−1 ZnCl2, pH 7.0; 37 °C; 15 min; triplicate
T3 construct: The ACE I from rabbit lung; purchased Sigma-Aldrich; host or cells: rabbit lung
T3 sequence (P12822 34-1310): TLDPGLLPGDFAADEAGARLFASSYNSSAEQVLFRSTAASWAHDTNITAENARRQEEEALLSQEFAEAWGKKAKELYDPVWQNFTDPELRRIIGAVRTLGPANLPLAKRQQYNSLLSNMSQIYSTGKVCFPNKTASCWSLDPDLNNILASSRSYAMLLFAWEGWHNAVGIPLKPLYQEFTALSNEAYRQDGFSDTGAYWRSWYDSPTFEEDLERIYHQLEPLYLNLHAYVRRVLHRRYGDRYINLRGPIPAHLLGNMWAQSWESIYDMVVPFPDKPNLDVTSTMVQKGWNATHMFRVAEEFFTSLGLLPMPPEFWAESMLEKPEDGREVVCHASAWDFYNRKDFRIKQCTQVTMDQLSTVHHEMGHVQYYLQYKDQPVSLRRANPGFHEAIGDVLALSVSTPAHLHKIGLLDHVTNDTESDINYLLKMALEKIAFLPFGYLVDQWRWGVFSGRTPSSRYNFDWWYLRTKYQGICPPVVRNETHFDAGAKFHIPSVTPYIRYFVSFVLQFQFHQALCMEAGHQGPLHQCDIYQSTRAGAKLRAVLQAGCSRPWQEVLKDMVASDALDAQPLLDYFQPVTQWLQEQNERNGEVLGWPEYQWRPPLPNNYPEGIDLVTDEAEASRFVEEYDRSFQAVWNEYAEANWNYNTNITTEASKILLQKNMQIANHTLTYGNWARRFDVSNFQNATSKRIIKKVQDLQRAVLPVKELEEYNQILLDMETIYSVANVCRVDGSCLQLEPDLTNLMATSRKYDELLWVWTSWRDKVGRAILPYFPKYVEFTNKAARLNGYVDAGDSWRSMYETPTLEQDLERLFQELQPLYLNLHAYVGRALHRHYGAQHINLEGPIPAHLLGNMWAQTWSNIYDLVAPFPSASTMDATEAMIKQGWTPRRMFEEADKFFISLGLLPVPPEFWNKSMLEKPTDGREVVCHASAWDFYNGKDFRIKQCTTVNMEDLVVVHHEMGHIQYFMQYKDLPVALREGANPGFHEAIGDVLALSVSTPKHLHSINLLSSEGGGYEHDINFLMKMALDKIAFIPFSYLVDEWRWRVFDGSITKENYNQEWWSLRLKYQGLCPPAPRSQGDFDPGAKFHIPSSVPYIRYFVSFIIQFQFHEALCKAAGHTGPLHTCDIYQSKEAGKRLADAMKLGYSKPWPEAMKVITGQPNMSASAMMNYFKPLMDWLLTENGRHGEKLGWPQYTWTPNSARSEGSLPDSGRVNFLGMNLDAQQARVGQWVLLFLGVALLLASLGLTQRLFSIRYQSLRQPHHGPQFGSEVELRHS
Procedure: as §4

[17] = DMSO 5% (v/v), after 6, 24 and 48 h, vs control group

Sequence of human neprilysin (NEP) (P08473 whole entry): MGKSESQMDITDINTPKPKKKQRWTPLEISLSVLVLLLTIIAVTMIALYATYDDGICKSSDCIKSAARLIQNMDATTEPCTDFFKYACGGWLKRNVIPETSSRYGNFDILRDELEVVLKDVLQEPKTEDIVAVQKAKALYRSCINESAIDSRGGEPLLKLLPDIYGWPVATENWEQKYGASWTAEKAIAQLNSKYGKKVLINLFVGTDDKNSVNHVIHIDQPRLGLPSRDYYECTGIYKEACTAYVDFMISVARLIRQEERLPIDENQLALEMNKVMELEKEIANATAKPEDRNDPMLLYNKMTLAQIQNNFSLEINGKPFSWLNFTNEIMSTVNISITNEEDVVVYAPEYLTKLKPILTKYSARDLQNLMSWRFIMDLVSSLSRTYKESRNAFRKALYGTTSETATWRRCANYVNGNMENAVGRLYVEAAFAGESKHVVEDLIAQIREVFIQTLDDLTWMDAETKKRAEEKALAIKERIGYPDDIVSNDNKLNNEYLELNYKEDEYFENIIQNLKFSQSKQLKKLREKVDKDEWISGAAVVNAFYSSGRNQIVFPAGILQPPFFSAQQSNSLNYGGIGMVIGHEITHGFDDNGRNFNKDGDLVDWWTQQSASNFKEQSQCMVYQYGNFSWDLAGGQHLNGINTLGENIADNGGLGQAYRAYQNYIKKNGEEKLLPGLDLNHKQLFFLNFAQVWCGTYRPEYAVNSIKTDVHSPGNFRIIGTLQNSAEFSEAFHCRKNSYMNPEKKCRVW
T1 sequence (O42275 24-633): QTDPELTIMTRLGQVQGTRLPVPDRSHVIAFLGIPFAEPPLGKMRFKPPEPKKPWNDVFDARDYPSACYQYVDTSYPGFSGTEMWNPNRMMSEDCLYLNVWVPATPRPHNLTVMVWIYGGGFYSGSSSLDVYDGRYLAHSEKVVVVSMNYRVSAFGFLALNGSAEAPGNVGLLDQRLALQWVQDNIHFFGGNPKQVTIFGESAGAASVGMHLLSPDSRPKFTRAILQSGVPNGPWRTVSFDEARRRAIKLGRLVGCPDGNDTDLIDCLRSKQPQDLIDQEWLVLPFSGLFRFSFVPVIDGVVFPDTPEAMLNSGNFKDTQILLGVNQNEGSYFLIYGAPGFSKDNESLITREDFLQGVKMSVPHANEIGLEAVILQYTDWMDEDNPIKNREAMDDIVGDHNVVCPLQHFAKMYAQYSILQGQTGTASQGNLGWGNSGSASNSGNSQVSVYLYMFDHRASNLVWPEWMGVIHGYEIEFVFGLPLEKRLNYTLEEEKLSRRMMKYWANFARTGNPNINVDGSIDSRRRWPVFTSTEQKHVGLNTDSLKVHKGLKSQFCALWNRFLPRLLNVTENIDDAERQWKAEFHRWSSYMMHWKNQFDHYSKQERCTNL

## C[S+](C)[O-] [DMSO, reference compound]
[1]; [17]
  cell integrity in Vero cells, DMSO positive control: decreased cell integrity
[2]; [17]
  cell integrity in PC12 cells, DMSO positive control: decreased cell integrity

## OO [H2O2]
[3]; H2O2 0.5 mmol·L−1, 20 h of treatment
  reduction of PC12 cell integrity by H2O2: 60.5 ± 4.0%
[3]; tested 1–0.06 mmol·L−1, 20 h, dose-dependent
  H2O2 concentrations promoting PC12 cell death: greater than 0.3 mmol·L−1

## CCOP(=O)(OCC)OP(=O)(OCC)OCC [TEPP, tetraethyl pyrophosphate]
[4]
  AChE inhibition percentage: 76.20 ± 1.42%

## DYVTVKGFSPLRKA [β-scoliidine]
[5]
  neuroprotective effects against H2O2-induced neurotoxicity in prolonged therapy: showed neuroprotective effects

## ISEALKSIIVG-NH2 [Annulatin]
[6]
  MIC S. aureus (NBRC 12732): Negative
[7]
  MIC S. cerevisiae (NBRC 10217): Negative
[8]
  Hemolytic Activity (%) at 12.5 μmol·L−1: 15.4%
[9]
  MIC E. coli (NBRC 14237): Negative
[10]
  Histamine Releasing Activity at 10 μmol·L−1 (%): 33.0%

## Mastoparan
[11]
  Hemolytic Activity (%) at 10 μmol·L−1: 13.5 ^b %
[12]
  Histamine Releasing Activity at 10 μmol·L−1 (%): 31.1 ^b %

## Melittin: honeybee hemolytic peptide
[11]
  Hemolytic Activity (%) at 10 μmol·L−1: 100.0 ^b %
[12]
  Histamine Releasing Activity at 10 μmol·L−1 (%): 64.3 ^b %

## PRLRRLTGLSPLR [α-campsomerin]
[1]
  cytotoxicity in Vero cells: no significant cytotoxicity
[2]; all concentrations tested (0.1, 1, 10 μmol·L−1), 6 h
  PC12 cell integrity after 6 h of treatment: reduced cell integrity
[13]
  metabolised at 4 h, 30 µmol·L−1: < 0.01%
[14]
  Inhibition (%) NEP: <0.01%
[15]
  metabolised at 4 h, 30 µmol·L−1: < 0.01%
[16]
  Inhibition (%) ACE: <0.01%

## PRLRRLTGLSPLRAP [β-campsomerin]
[1]
  cytotoxicity in Vero cells: no significant cytotoxicity
[2]; 0.1 to 10 µmol·L−1, up to 48 h
  toxicity in PC12 cells under the conditions tested (discussion): not toxic
[13]
  metabolised at 4 h, 30 µmol·L−1: < 0.01%
[14]
  Inhibition (%) NEP: <0.01%
[15]
  metabolised at 4 h, 30 µmol·L−1: < 0.01%
[16]
  Inhibition (%) ACE: <0.01%
